Laboratory results as given in patent US7153855B2, “Pyrazolopyridinyl pyrimidine therapeutic compounds” (SmithKline Beecham Corporation, priority 2001, dated 2006).

System: HSV-1
Experiment: HSV-1 infection of Vero 76 cells, viral DNA detected by hybridization capture (chemiluminescence)
Format: cell-based
Conditions: Human alphaherpesvirus 1; HSV-1 in Vero 76 cells, MOI=0.001, compounds incubated 40–48 hours at 37° C.; read-out: IC50
How it was run: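 Vero 76 cells infected 45 min at 37° C with HSV-1 (MOI=0.001), seeded at 5×10^4 cells/well in 2% FBS medium with compounds, incubated 40–48 h, then lysed in 0.2 N NaOH/1% detergent. Viral DNA captured by UL13 plasmid, hybridized overnight at 42° C with digoxigenin-labeled UL15 probe, detected by anti-digoxigenin-HRP chemiluminescence.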

IC50: 200 nM
SMILES: COCCNc1cccc2c(-c3ccnc(NC4CCCC4)n3)c(-c3cccc(F)c3)nn12 [Example 106, 3-[2-(Cyclopentylamino)-4-pyrimidinyl]-2-(3-fluorophenyl)-N-(2-methoxyethyl)pyrazolo[1,5-a]pyridin-7-amine]
